In this experiment the target is T1, Full length human TNNI3K (hTNNI3K) (Homo sapiens, UniProt Q59H18).
T1 construct: His-MBP-TEV-Full length human TNNI3K (hTNNI3K); His (N); MBP (N); TEV cleavage site (N); made in house; host or cells: baculovirus system (printed 'Baculokinase system')
T1 sequence (Q59H18 1-835): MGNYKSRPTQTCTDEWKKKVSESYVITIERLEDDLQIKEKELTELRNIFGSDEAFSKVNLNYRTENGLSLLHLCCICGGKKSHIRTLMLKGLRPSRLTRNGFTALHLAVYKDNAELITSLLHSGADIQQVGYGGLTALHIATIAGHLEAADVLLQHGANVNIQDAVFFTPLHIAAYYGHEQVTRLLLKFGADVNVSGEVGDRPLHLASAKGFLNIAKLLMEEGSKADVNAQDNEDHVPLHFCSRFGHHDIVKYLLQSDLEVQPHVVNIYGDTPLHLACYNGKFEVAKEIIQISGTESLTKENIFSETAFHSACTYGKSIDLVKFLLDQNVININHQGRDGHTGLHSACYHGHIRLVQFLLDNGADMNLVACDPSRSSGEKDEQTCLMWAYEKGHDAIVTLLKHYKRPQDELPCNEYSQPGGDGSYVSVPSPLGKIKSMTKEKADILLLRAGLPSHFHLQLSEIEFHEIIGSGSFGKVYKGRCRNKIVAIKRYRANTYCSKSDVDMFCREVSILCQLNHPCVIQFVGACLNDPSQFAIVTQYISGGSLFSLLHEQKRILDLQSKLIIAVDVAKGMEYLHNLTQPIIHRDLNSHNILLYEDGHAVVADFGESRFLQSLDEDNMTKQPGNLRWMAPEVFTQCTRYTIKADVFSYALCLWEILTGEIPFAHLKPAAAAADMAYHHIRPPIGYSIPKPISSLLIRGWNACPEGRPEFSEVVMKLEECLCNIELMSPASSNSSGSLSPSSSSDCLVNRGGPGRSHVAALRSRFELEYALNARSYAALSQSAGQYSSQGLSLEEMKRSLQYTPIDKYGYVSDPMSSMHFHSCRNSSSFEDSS
Briefly: Fluorescent polarization assay of compound inhibition on hTNNI3K ATP binding (Biological Assay Method I). Conditions: displacement of fluorescent ligand from hTNNI3K ATP binding pocket; mean of a minimum of 2 experiments; read-out: pXC50 (the source's name) (converted). The source says:
Materials: His-MBP-TEV-Full length human TNNI3K (hTNNI3K) was expressed in Baculokinase system and purified from amylase affinity column followed by Superdex200. The fluorescent ligand 5-({[2-({[3-({4-[(5-hydroxy-2-methylphenyl)amino]-2-pyrimidinyl}amino)phenyl]carbonyl}amino)ethyl]amino}carbonyl)-2-(6-hydroxy-3-oxo-3H-xanthen-9-yl)benzoic acid was used. The preparation of this fluorescent ligand is disclosed in U.S. Provisional Patent Application No. 61/237,815 filed Aug. 28, 2009, the disclosure of which is incorporated by reference herein. The other buffer components, including MgCl2 (Catalog Number M1028), Bis-Tris (Catalog Number B7535), DTT (Catalog Number D9779) and Chaps (Catalog Number C3023) were purchased from Sigma-Aldrich.
Biological Assay Method I:
A fluorescent polarization assay was used to determine does response of compound inhibition on hTNNI3K ATP binding.
Solution 1: Ten (10) mL of a 5 nM 5-({[2-({[3-({4-[(5-hydroxy-2-methylphenyl)amino]-2-pyrimidinyl}amino)phenyl]carbonyl}amino)ethyl]amino}carbonyl)-2-(6-hydroxy-3-oxo-3H-xanthen-9-yl)benzoic acid solution (Solution 1) was prepared by mixing 5 μL of 1M DTT and 80 μL of 10% (w/v) Chaps and 5 μL of a 10 μM 5-({[2-({[3-({4-[(5-hydroxy-2-methylphenyl)amino]-2-pyrimidinyl}amino)phenyl]carbonyl}amino) ethyl]amino}carbonyl)-2-(6-hydroxy-3-oxo-3H-xanthen-9-yl)benzoic acid stock solution into 9910 μL buffer (20 mM Tris, 15 mM MgCl2, pH 7.5). (Stock solution: 10 μM solution of 5-({[2-({[3-({4-[(5-hydroxy-2-methylphenyl)amino]-2-pyrimidinyl}amino)phenyl]carbonyl}amino)ethyl]amino}carbonyl)-2-(6-hydroxy-3-oxo-3H-xanthen-9-yl)benzoic acid in 100% DMSO)
Solution 2 was formed by mixing 53.8 μL of 2.6 μM hTNNI3K with a 6946.2 μL aliquot of Solution 1 (the above 5-({[2-({[3-({4-[(5-hydroxy-2-methylphenyl)amino]-2-pyrimidinyl}amino)phenyl]carbonyl}amino)ethyl]amino}carbonyl)-2-(6-hydroxy-3-oxo-3H-xanthen-9-yl)benzoic acid solution) to make up a 7 mL of mixture of hTNNI3K and 5-({[2-({[3-({4-[(5-hydroxy-2-methylphenyl)amino]-2-pyrimidinyl}amino)phenyl]carbonyl}amino)ethyl]amino}carbonyl)-2-(6-hydroxy-3-oxo-3H-xanthen-9-yl)benzoic acid (Solution 2).
Fifty (50) nL of inhibitors in DMSO (or DMSO controls) were stamped into a 384-well low volume Greiner black plate, followed by addition of 5 μL of Solution 1 to column 18 and 5 μL Solution 2 to columns 1-17 and 19-24 of the plate. The plate was then spun at 500 rpm for 30 seconds and incubated at room temperature for 60 minutes. After that, the fluorescent polarization was measured on Analyst (ex/em: 485/530 nm, Dichroic: 505). For dose response experiments, normalized data were fit by ABASE/XC50 and pXC50=(log((b−y)/(y−a)))/d−log(x), where x is the compound concentration and y is the % activity at specified compound concentration, a is the minimum % activity, b is the maximum % activity, and d is the Hill slope.
The pXC50s are averaged to determine a mean value, for a minimum of 2 experiments.

“And” between values parts separate entries of the source, which are not always exact repeats. Equal values may be shown once. Where a name gives a salt, the structure may show the parent alone.

Take `CNS(=O)(=O)c1cc(Nc2ncnc3cc(OC)c(OC)c(OC)c23)c(OCC(F)(F)F)cc1F` [Example 58, 2-fluoro-N-methyl-4-[(2,2,2-trifluoroethyl)oxy]-5-{[5,6,7-tris(methyloxy)-4-quinazolinyl]amino}benzene sulfonamide trifluoroacetate]: the IC50 is 10 to 100 nM. The result for `CNS(=O)(=O)c1ccc(Cl)c(Nc2ncnc3cc(OC)c(OC)c(OC)c23)c1` [Example 59, 4-chloro-N-methyl-3-{[5,6,7-tris(methyloxy)-4-quinazolinyl]amino}benzene sulfonamide trifluoroacetate] reads 10 to 100 nM; that for `CNS(=O)(=O)c1ccc(OCC(F)(F)F)c(Nc2ncnc3cc(OC)cc(OCCOC)c23)c1` [Example 60, N-methyl-3-[(7-(methyIoxy)-5-{[2-(methyloxy)ethyl]oxy}-4-quinazolinyl)amino]-4-[(2,2,2-trifluoroethyl)oxy]benzene-sulfonamide hydrochloride], 10 to 100 nM; that for `CNS(=O)(=O)c1ccc(OCC(F)(F)F)c(Nc2ncnc3cc(OC)cc(OC4CCOCC4)c23)c1` [Example 61, N-methyl-3-{[7-(methyloxy)-5-(tetrahydro-2H-pyran-4-yloxy)-4-quinazolinyl]amino}-4-[(2,2,2-trifluoroethyl)oxy] benzenesulfonamide], 10 to 100 nM. The result for `CNS(=O)(=O)c1ccc(OC(C)C(F)(F)F)c(Nc2ncnc3cc(OC)c(OC)c(OC)c23)c1` (centres unmarked) [Example 62, N-methyl-4-[(2,2,2-trifluoro-1-methylethyl)oxy]-3-{[5,6,7-tris(methyloxy)-4-quinazolinyl]amino}benzene sulfonamide trifluoroacetate] reads 1 to 10 nM; that for `CCOc1cc(OC)cc2ncnc(Nc3cc(S(=O)(=O)NC)ccc3OC(F)(F)F)c12` [Example 64, 3-{[5-(ethyloxy)-7-(methyloxy)-4-quinazolinyl]amino}-N-methyl-4-[(trifluoromethyl)oxy] benzenesulfonamide], 10 to 100 nM. In the case of `CNS(=O)(=O)c1ccc(OC(F)(F)F)c(Nc2ncnc3cc(OC)cc(OC(C)C)c23)c1` [Example 65, N-methyl-3-{[5-[(1-methylethyl)oxy]-7-(methyloxy)-4-quinazolinyl]amino}-4-[(trifluoromethyl)oxy] benzenesulfonamide] it was 10 to 100 nM. On to `CCOc1cc(OC)cc2ncnc(Nc3cc(S(=O)(=O)NC)ccc3OC(C)C(F)(F)F)c12` (centres unmarked) [Example 66, 3-{[5-(ethyloxy)-7-(methyloxy)-4-quinazolinyl]amino}-N-methyl-4-[(2,2,2-trifluoro-1-methylethyl)oxy] benzenesulfonamide], for which the IC50 is 1 to 10 nM. In the case of `CNS(=O)(=O)c1ccc(OC(C)C(F)(F)F)c(Nc2ncnc3cc(OC)cc(OC(C)C)c23)c1` (centres unmarked) [Example 67, N-methyl-3-{[5-[(1-methylethyl)oxy]-7-(methyloxy)-4-quinazolinyl]amino}-4-[(2,2,2-trifluoro-1-methylethyl)oxy] benzenesulfonamide] it was 10 to 100 nM; in that of `CNS(=O)(=O)c1ccc(S(C)(=O)=O)c(Nc2ncnc3cc(OC)c(OC)cc23)c1` [Example 68, 3-{[6,7-bis(methyloxy)-4-quinazolinyl]amino}-N-methyl-4-(methylsulfonyl) benzenesulfonamide trifluoroacetate], 1 to 10 nM and ~3.98 nM; in that of `CNS(=O)(=O)c1ccc(OC(C)C(F)(F)F)c(Nc2ncnc3cc(OC)c(OC)cc23)c1` (centres unmarked) [Example 69, 3-{[6,7-bis(methyloxy)-4-quinazolinyl]amino}-N-methyl-4-[(2,2,2-trifluoro-1-methylethyl)oxy] benzenesulfonamide], 10 to 100 nM.

For the compound `CNS(=O)(=O)c1ccc(OCC(F)(F)F)c(Nc2ncnc3cc(OC)c(I)cc23)c1` [Example 70, 3-{[6-iodo-7-(methyloxy)-4-quinazolinyl]amino}-N-methyl-4-[(2,2,2-trifluoroethyl)oxy] benzenesulfonamide], the IC50 is 10 to 100 nM.

As to `CCOc1cc2ncnc(Nc3cc(S(=O)(=O)NC)ccc3OCC(F)(F)F)c2cc1OCC` [Example 71, 3-{[6,7-bis(ethyloxy)-4-quinazolinyl]amino}-N-methyl-4-[(2,2,2-trifluoroethyl)oxy] benzenesulfonamide], the IC50 is 1 to 10 nM. In the case of `CNS(=O)(=O)c1ccc(N(C)C)c(Nc2ncnc3cc(OCCCN4CCOCC4)ccc23)c1` [Example 73, 4-(dimethylamino)-N-methyl-3-[(7-{[3-(4-morpholinyl)propyl]oxy}-4-quinazolinyl)amino]benzenesulfonamide hydrochloride] it was 1 to 10 nM; in that of `CNS(=O)(=O)c1ccc(OCC(F)(F)F)c(Nc2ncnc3cc(OCCCN4CCOCC4)ccc23)c1` [Example 74, N-methyl-3-[(7-{[3-(4-morpholinyl)propyl]oxy}-4-quinazolinyl)amino]-4-[(2,2,2-trifluoroethyl)oxy] benzenesulfonamide trifluoroacetate], 10 to 100 nM. Consider `CNS(=O)(=O)c1ccc(OCC(F)(F)F)c(Nc2ncnc3cc(OCCCOC)ccc23)c1` [Example 75, N-methyl-3-[(7-{[3-(methyloxy)propyl]oxy}-4-quinazolinyl)amino]-4-[(2,2,2-trifluoroethyl)oxy]benzenesulfonamide], for which the IC50 is 10 to 100 nM. Regarding `CNS(=O)(=O)c1ccc(N(C)C)c(Nc2ncnc3cc(OCCCOC)ccc23)c1` [Example 76, 4-(dimethylamino)-N-methyl-3-[(7-{[3-(methyloxy)propyl]oxy}-4-quinazolinyl)amino] benzenesulfonamide], the IC50 was 1 to 10 nM. For `CNS(=O)(=O)c1ccc(S(C)(=O)=O)c(Nc2ncnc3cc(OC)cc(OC)c23)c1` [Example 77, 3-{[5,7-bis(methyloxy)-4-quinazolinyl]amino}-N-methyl-4-(methylsulfonyl)benzenesulfonamide trifluoroacetate], the IC50 is 10 to 100 nM. In the case of `CCOc1cc2ncnc(Nc3cc(S(=O)(=O)NC)ccc3OCC(F)(F)F)c2cc1OC` [Example 80, 3-(7-ethoxy-6-methoxy-quinazolin-4-ylamino)-N-methyl-4-(2,2,2-trifluoro-ethoxy)-benzenesulfonamide trifluoroacetate], the IC50 is 10 to 100 nM. Regarding `CNS(=O)(=O)c1ccc(OCC(F)(F)F)c(Nc2ncnc3cc(OCCOC)c(OC)cc23)c1` [Example 81, 3-[6-methoxy-7-(2-methoxy-ethoxy)-quinazolin-4-ylamino]-N-methyl-4-(2,2,2-trifluoro-ethoxy)-benzenesulfonamide trifluoroacetate], the IC50 is 10 to 100 nM.

For the origin of these results see patent publication US8859571B2, “Quinazoline compounds” (GlaxoSmithKline LLC, priority 2009, dated 2014).
